Laboratory results as given in ChEMBL document CHEMBL1153328, “5-Aminomethylbenzimidazoles as potent ITK antagonists” (Bioorg Med Chem Lett, 2009).

target: T1, Tyrosine-protein kinase ITK/TSK (Homo sapiens, UniProt Q08881); experiment: Antagonist activity at human ITK expressed in BTK deficient DT40 cells assessed as inhibition of B cell receptor-stimulated calcium influx; format: functional, cell-based
T1 sequence (Q08881 whole entry): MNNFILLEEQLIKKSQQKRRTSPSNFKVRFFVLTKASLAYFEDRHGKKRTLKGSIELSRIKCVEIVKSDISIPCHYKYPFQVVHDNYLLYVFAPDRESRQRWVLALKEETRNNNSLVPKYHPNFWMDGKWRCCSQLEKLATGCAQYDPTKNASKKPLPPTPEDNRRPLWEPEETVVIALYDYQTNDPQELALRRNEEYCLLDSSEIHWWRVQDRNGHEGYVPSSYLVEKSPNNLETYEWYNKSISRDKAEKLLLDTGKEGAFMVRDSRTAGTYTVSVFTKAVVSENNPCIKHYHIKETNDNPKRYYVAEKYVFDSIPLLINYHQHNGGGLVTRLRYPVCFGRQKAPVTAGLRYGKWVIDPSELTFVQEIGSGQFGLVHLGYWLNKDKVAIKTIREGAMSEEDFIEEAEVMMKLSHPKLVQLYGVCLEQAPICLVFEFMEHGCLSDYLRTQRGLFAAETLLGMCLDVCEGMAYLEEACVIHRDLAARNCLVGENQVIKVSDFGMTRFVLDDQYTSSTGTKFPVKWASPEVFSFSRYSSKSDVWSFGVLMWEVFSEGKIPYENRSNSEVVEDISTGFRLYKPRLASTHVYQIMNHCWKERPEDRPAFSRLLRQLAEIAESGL

| IC50 [nM] | Structure (SMILES) |
| --- | --- |
| 20 | CC(C)(O)Cn1c(NC(=O)c2ccc(-c3cn[nH]c3)s2)nc2cc(CNC3CCCCC3)ccc21 |
| 210 | Cc1ncc(-c2ccc(C(=O)Nc3nc4cc(CNC5CCCCC5)ccc4n3CC(C)(C)O)s2)o1 |
| 13 | CN(Cc1ccc2c(c1)nc(NC(=O)c1ccc(-c3cn[nH]c3)s1)n2CC(C)(C)O)C1CCCCC1 |
| 21 | CC(C)(O)Cn1c(NC(=O)c2ccc(-c3cn[nH]c3)s2)nc2cc(CNc3ccccc3)ccc21 |
| 11 | CC(C)(O)Cn1/c(=N/C(=O)c2ccc(-c3cn[nH]c3)s2)[nH]c2cc(CN3CCCCC3)ccc21 |

| Structure (SMILES) | IC50 [nM] |
| --- | --- |
| C[C@H](N(C)Cc1ccc2c(c1)[nH]/c(=N\C(=O)c1ccc(-c3cn[nH]c3)s1)n2CC(C)(C)O)C(C)(C)C | 3 |

system: T-cell; experiment: Inhibition of anti-CD3 and anti-CD28 monoclonal antibody-stimulated IL2 secretion in human CD4+ T cells; format: functional, cell-based

| IC50 [nM] | Structure (SMILES) |
| --- | --- |
| 93 | CC(C)(O)Cn1c(NC(=O)c2ccc(-c3cn[nH]c3)s2)nc2cc(CNC3CCCCC3)ccc21 |
| 180 | Cc1ncc(-c2ccc(C(=O)Nc3nc4cc(CNC5CCCCC5)ccc4n3CC(C)(C)O)s2)o1 |
| 59 | CN(Cc1ccc2c(c1)nc(NC(=O)c1ccc(-c3cn[nH]c3)s1)n2CC(C)(C)O)C1CCCCC1 |
| 150 | CC(C)(O)Cn1c(NC(=O)c2ccc(-c3cn[nH]c3)s2)nc2cc(CNc3ccccc3)ccc21 |
| 120 | CC(C)(O)Cn1/c(=N/C(=O)c2ccc(-c3cn[nH]c3)s2)[nH]c2cc(CN3CCCCC3)ccc21 |

| Structure (SMILES) | IC50 [nM] |
| --- | --- |
| C[C@H](N(C)Cc1ccc2c(c1)[nH]/c(=N\C(=O)c1ccc(-c3cn[nH]c3)s1)n2CC(C)(C)O)C(C)(C)C | 18 |

target: Insulin receptor (Homo sapiens, UniProt P06213); experiment: Inhibition of IRK
Sequence (P06213 28-758 limits assumed): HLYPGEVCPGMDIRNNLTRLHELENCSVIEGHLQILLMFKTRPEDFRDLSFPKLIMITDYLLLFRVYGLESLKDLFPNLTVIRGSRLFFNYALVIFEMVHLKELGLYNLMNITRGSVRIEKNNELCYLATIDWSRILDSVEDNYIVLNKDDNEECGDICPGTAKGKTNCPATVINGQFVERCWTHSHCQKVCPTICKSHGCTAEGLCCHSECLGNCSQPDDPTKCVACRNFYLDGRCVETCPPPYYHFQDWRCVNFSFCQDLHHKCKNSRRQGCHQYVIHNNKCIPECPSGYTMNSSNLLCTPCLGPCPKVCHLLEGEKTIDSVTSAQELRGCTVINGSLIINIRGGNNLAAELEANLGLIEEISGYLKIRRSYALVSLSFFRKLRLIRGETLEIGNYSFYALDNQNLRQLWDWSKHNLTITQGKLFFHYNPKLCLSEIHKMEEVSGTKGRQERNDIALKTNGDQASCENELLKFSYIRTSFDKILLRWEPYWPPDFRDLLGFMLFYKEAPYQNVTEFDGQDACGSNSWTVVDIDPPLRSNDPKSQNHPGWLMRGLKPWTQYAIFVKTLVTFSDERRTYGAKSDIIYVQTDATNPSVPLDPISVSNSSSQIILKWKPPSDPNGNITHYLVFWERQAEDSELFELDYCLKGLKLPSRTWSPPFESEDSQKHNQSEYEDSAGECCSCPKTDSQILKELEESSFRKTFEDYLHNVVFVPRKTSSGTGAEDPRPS
Sequence (P06213 763-1382 limits assumed): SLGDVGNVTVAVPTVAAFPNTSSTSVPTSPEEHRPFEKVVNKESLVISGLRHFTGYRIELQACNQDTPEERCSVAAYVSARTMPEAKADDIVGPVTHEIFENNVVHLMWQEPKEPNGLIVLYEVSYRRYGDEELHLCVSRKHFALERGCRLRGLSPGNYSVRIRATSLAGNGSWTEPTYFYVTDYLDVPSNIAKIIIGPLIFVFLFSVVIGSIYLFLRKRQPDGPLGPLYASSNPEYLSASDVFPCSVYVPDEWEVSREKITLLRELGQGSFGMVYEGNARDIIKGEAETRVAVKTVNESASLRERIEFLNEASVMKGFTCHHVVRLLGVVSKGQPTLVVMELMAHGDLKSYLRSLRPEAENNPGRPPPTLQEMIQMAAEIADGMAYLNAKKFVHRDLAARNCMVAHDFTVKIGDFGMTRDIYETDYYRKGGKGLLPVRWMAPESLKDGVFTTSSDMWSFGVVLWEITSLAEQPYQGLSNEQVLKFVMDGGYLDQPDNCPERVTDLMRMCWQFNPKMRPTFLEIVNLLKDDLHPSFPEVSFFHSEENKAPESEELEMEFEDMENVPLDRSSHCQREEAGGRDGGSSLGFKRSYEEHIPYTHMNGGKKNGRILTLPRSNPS

| IC50 [nM] | Structure (SMILES) |
| --- | --- |
| 400 | CC(C)(O)Cn1c(NC(=O)c2ccc(-c3cn[nH]c3)s2)nc2cc(CNC3CCCCC3)ccc21 |
| 700 | Cc1ncc(-c2ccc(C(=O)Nc3nc4cc(CNC5CCCCC5)ccc4n3CC(C)(C)O)s2)o1 |
| 480 | CN(Cc1ccc2c(c1)nc(NC(=O)c1ccc(-c3cn[nH]c3)s1)n2CC(C)(C)O)C1CCCCC1 |
| 1700 | CC(C)(O)Cn1c(NC(=O)c2ccc(-c3cn[nH]c3)s2)nc2cc(CNc3ccccc3)ccc21 |
| 550 | CC(C)(O)Cn1/c(=N/C(=O)c2ccc(-c3cn[nH]c3)s2)[nH]c2cc(CN3CCCCC3)ccc21 |

| Structure (SMILES) | IC50 [nM] |
| --- | --- |
| C[C@H](N(C)Cc1ccc2c(c1)[nH]/c(=N\C(=O)c1ccc(-c3cn[nH]c3)s1)n2CC(C)(C)O)C(C)(C)C | 400 |

target: T1, Tyrosine-protein kinase ITK/TSK; experiment: Inhibition of ITK in presence of 1 mM ATP

| IC50 [nM] | Structure (SMILES) |
| --- | --- |
| 99 | CC(C)(O)Cn1c(NC(=O)c2ccc(-c3cn[nH]c3)s2)nc2cc(CNC3CCCCC3)ccc21 |
| 940 | Cc1ncc(-c2ccc(C(=O)Nc3nc4cc(CNC5CCCCC5)ccc4n3CC(C)(C)O)s2)o1 |
| 160 | CN(Cc1ccc2c(c1)nc(NC(=O)c1ccc(-c3cn[nH]c3)s1)n2CC(C)(C)O)C1CCCCC1 |
| 75 | CC(C)(O)Cn1c(NC(=O)c2ccc(-c3cn[nH]c3)s2)nc2cc(CNc3ccccc3)ccc21 |
| 250 | CC(C)(O)Cn1/c(=N/C(=O)c2ccc(-c3cn[nH]c3)s2)[nH]c2cc(CN3CCCCC3)ccc21 |

| Structure (SMILES) | IC50 [nM] |
| --- | --- |
| C[C@H](N(C)Cc1ccc2c(c1)[nH]/c(=N\C(=O)c1ccc(-c3cn[nH]c3)s1)n2CC(C)(C)O)C(C)(C)C | 8 |

target: T1, Tyrosine-protein kinase ITK/TSK; experiment: Binding affinity to ITK by DELFIA-based molecular assay

| IC50 [nM] | Structure (SMILES) |
| --- | --- |
| 1 | CC(C)(O)Cn1c(NC(=O)c2ccc(-c3cn[nH]c3)s2)nc2cc(CNC3CCCCC3)ccc21 |
| 8 | Cc1ncc(-c2ccc(C(=O)Nc3nc4cc(CNC5CCCCC5)ccc4n3CC(C)(C)O)s2)o1 |
| 2 | CN(Cc1ccc2c(c1)nc(NC(=O)c1ccc(-c3cn[nH]c3)s1)n2CC(C)(C)O)C1CCCCC1 |
| 2 | CC(C)(O)Cn1c(NC(=O)c2ccc(-c3cn[nH]c3)s2)nc2cc(CNc3ccccc3)ccc21 |
| 3 | CC(C)(O)Cn1/c(=N/C(=O)c2ccc(-c3cn[nH]c3)s2)[nH]c2cc(CN3CCCCC3)ccc21 |

| Structure (SMILES) | IC50 [nM] |
| --- | --- |
| C[C@H](N(C)Cc1ccc2c(c1)[nH]/c(=N\C(=O)c1ccc(-c3cn[nH]c3)s1)n2CC(C)(C)O)C(C)(C)C | 1 |

system: Blood; experiment: Inhibition of staphylococcal entertoxin B-stimulated IL2 secretion in human whole blood; format: functional, tissue-based

| Structure (SMILES) | IC50 [nM] |
| --- | --- |
| C[C@H](N(C)Cc1ccc2c(c1)[nH]/c(=N\C(=O)c1ccc(-c3cn[nH]c3)s1)n2CC(C)(C)O)C(C)(C)C | 690 |
